Results: patent US7262173B2, “Chemosensitizing with liposomes containing oligonucleotides” (Georgetown University, priority 1997, dated 2007)

Experiments:
[1] = test system: SQ-20B cells; conditions: free ODN 100 μM, 1% serum, previously demonstrated, cited from earlier work
[2] = test system: Raf-1; assay: Raf-1 expression in SQ-20B tumor xenografts after i.v. or intratumoral ODN; format: in vivo, human; conditions: intravenous treatment; compared with untreated controls
Protocol: (§1) FIG. 7: Effects of intravenous administration of LE-ATG-AS raf ODN (SEQ ID NO:1) our Raf-1 expression in normal and tumor tissues. Raf-1 expression was examined in liver, kidneys and SQ-20B tumor xenograft of Balb/c nu/nu mice after i.v. injections of 6 mg/kg daily dose of LE-ATG-AS raf ODN (SEQ ID NO:1) (AS) or LE-ATG-S raf ODN (SEQ ID NO:3) (S) for five consecutive days. Control mice (C) received normal saline. Representative data showing Raf-1 expression in lysates normalized for protein content by immunoprecipitation and immunoblotting (top). Quantification data are shown as mean±s.d. from three mice (bottom).
FIG. 8: Inhibition of Raf-1 protein expression in SQ-20B tumor xenografts by intratumoral administration of LE-ATG-AS raf ODN (SEQ ID NO:1): Each animal received intratumoral injections of LE-ATG-AS raf ODN (SEQ ID NO:1) (AS) on the right flank and LE-ATG-S raf ODN (SEQ ID NO:3) (S) on the left flank at a dose of 4 mg/kg daily for seven days as explained in the experimental procedures. […] Quantification data shown are mean±s.d., from three representative mice. […]
(§2) For in vivo expression studies, tumor tissue and organs were homogenized in the cell lysis buffer using Polytron homogenizer (Westbury, N.Y., USA). Raf-1 expression was analyzed in tissue homogenates by immunoprecipitation and immunoblotting as described above.

[3] = Tissue distribution of raf ODN after i.v. injection; format: in vivo, Balb/c nu/nu mice; conditions: 30 mg/kg i.v., free ODN; data not shown
Protocol: FIG. 4: Tissue distribution profiles of LE-ATG-AS raf ODN (SEQ ID NO:1).
Male Balb/c nu/nu mice (Charles River, Raleigh, N.C., USA; 10–12 weeks old) were maintained in the Research Resources Facility of the Georgetown University according to accredited procedure, and fed purina chow and water ad libitum. […] At 5 min, 15 min, 30 min, 1 h, 2 h, 4 h, 8 h, 24 h and 48 h after injection, one animal in each group was bled from the retro-orbital sinus into heparinized tubes under anesthesia, and killed by cervical dislocation.
The extracts were loaded on to 20% polyacrylamide/3 M urea gels and electrophoresed in TBE buffer. […] The radiolabeled probe was generated by 5′-end-labeling of ATG-S′ raf ODN (SEQ ID NO:3) with γ^32-P-ATP using T4 polynucleotide kinase and purification over Chroma Spin-10 columns (Clontech, Palo Alto, Calif., and USA). […] The autoradiographs were scanned using a computer program (ImageQuant software, Molecular Dynamics, Sunnyvale, Calif., and USA), and the amounts of ATG-AS raf ODN (SEQ ID NO:1) in various samples were calculated by comparison to standards.

[4] = Plasma pharmacokinetics of raf ODN after i.v. injection; format: in vivo, Balb/c nu/nu mice; conditions: 30 mg/kg i.v.
Protocol: FIG. 3: The plasma concentration-time profile of LE-ATG-AS raf ODN (SEQ ID NO:1), 30 mg/kg LE-ATG-AS raf ODN (SEQ ID NO:1) (top panel) or TG-AS raf ODN (SEQ ID NO:1) (middle panel) was administered […]. in […] nu/nu mice. Blood samples were collected from retro-orbital sinus as indicated times after injection and the ODNs in plasma samples were extracted and analyzed by denaturing gel electrophoresis as explained in the experimental procedures. St standards prepared by spiking known amounts of ATG-AS raf ODN (SEQ ID NO:1) in blank plasma. Top panel: Samples were diluted before electrophoresis as follows: lane 1, 12×; lanes 2 and 3, 4×; lanes 4 and 5, 3.3×; lane 6, 2×; lane 7, 1.4×; lane 8, 1.3×; and lane 9, I×. […] Additional standards (1.4 to >2 log range) were used to determine ODN concentration over a 24 hour period (data not shown). Middle panel: Samples were diluted before loading as follows: lane 1, 4×, lanes 2 and 3, 2×, lanes 4, 5 and 6, I×; lane 7, 0.75×, lanes 8 and […], 0.6×. […]
The extracts were loaded on to 20% polyacrylamide/3 M urea gels and electrophoresed in TBE buffer. […] The autoradiographs were scanned using a computer program (ImageQuant software, Molecular Dynamics, Sunnyvale, Calif., and USA), and the amounts of ATG-AS raf ODN (SEQ ID NO:1) in various samples were calculated by comparison to standards.

[5] = test system: Raf-1; assay: Raf-1 expression in normal mouse tissues after i.v. ODN; format: in vivo, Balb/c nu/nu mice; conditions: i.v. 6 mg/kg daily for 5 days
Protocol: as §1
Logarithmically growing SQ-20B cells were injected subcutaneously (2×10^6 cells) in the flank regions on both sides in male Balb/c nu/nu mice under mild anesthesia. Tumors were allowed to grow to a mean tumor volume of 115 mm^3 before initiation of ODN treatment. Two treatment routes were followed: intravenous and intratumoral. For intravenous delivery, mice were randomly divided into six groups. […]
as §2

Substance: 5′-GTG-CTCCATTGATGC-3′ (antisense GTGCTCCATTGATGC; DNA, linkages s1 o12 s1 (s phosphorothioate, o phosphodiester), methylation of C not given here) [ATG-AS raf ODN, antisense ODN to translation initiation site of human c-raf-1 cDNA; one terminal base linkage at each end phosphorothioate]
- ODN taken up by SQ-20B cells ([1]; at 6 hours): < 2%
- maximal uptake by SQ-20B cells ([1]; at 12 hours): approximately 4%
- effect on Raf-1 expression in tumor tissue [2]: no effect
- only time at which intact ODN seen in various organs [3]: 5 min
- plasma concentration ([4]; at 5 min): 9.75 µg/mL
- only time at which intact ODN detectable in plasma ([4]; free ODN): 5 min
- inhibition of Raf-1 expression in normal tissues [5]: No inhibition
